From PubChem BioAssay AID1963830 (Molecular Pharmacology Branch, DTP, NCI, 2024)

Test system: 922993-354-T-J3-PDC complex spheroid viability
Assay: Anticancer human tumor 922993-354-T-J3-PDC patient-derived endometrial carcinoma cell line growth inhibition [POLQ]
Conditions: for IC50: curve of first compound; for viability, T/C: stronger effect = lower value
Procedure, shortened: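 PDC + HUVEC + MSC complex spheroids; POLQ inhibitors ± partner drugs; top conc. at/near clinical Cmax, else 10 microM (SN-38 1 microM), half-log dilutions; 37 degrees C, 5% CO2.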

[1] = second compound 0.0316 µM, first compound 0.0316 µM
[2] = second compound 0.0316 µM, first compound 0.1 µM
[3] = second compound 0.0316 µM, first compound 0.316 µM
[4] = second compound 0.0316 µM, first compound 1 µM
[5] = second compound 0.1 µM, first compound 0.0316 µM
[6] = second compound 0.1 µM, first compound 0.1 µM
[7] = second compound 0.1 µM, first compound 0.316 µM
[8] = second compound 0.1 µM, first compound 1 µM
[9] = second compound 0.316 µM, first compound 0.0316 µM
[10] = second compound 0.316 µM, first compound 0.1 µM
[11] = second compound 0.316 µM, first compound 0.316 µM
[12] = second compound 0.316 µM, first compound 1 µM
[13] = second compound 1 µM, first compound 0.0316 µM
[14] = second compound 1 µM, first compound 0.1 µM
[15] = second compound 1 µM, first compound 0.316 µM
[16] = second compound 1 µM, first compound 1 µM
[17] = second compound 3.16 µM, first compound 0.0316 µM
[18] = second compound 3.16 µM, first compound 0.1 µM
[19] = second compound 3.16 µM, first compound 0.316 µM
[20] = second compound 3.16 µM, first compound 1 µM
[21] = second compound 10 µM, first compound 0.0316 µM
[22] = second compound 10 µM, first compound 0.1 µM
[23] = second compound 10 µM, first compound 0.316 µM
[24] = second compound 10 µM, first compound 1 µM
[25] = second compound 0.0316 µM, first compound 3.16 µM
[26] = second compound 0.0316 µM, first compound 10 µM
[27] = second compound 0.1 µM, first compound 3.16 µM
[28] = second compound 0.1 µM, first compound 10 µM
[29] = second compound 0.316 µM, first compound 3.16 µM
[30] = second compound 0.316 µM, first compound 10 µM
[31] = second compound 1 µM, first compound 3.16 µM
[32] = second compound 1 µM, first compound 10 µM
[33] = second compound 3.16 µM, first compound 3.16 µM
[34] = second compound 3.16 µM, first compound 10 µM
[35] = second compound 10 µM, first compound 3.16 µM
[36] = second compound 10 µM, first compound 10 µM
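Also: spheroids exposed to the agents for one week.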
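For viability, T/C in this document: 100% = DMSO vehicle control wells.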

C=CCn1c(=O)c2cnc(Nc3ccc(N4CCN(C)CC4)cc3)nc2n1-c1cccc(C(C)(C)O)n1 + Nc1ccc(C#CCN(C(=O)Cc2ncc(C(F)(F)F)cc2C(F)(F)F)c2ccc(F)cc2)nn1
IC50 (second compound 0.0316 µM): > 1 µM | IC50 (second compound 0.1 µM): > 1 µM | IC50 (second compound 0.316 µM): > 1 µM | IC50 (second compound 1 µM): > 1 µM | IC50 (second compound 3.16 µM): > 1 µM | IC50 (second compound 10 µM): > 1 µM | viability, T/C (second compound 0.0316 µM, first compound 0.00316 µM): 105% | viability, T/C (second compound 0.0316 µM, first compound 0.01 µM): 102% | viability, T/C [1]: 101% | viability, T/C [2]: 100% | viability, T/C [3]: 106% | viability, T/C [4]: 98.5% | viability, T/C (second compound 0.1 µM, first compound 0.00316 µM): 107% | viability, T/C (second compound 0.1 µM, first compound 0.01 µM): 98.5% | viability, T/C [5]: 103% | viability, T/C [6]: 99.6% | viability, T/C [7]: 104% | viability, T/C [8]: 101% | viability, T/C (second compound 0.316 µM, first compound 0.00316 µM): 107% | viability, T/C (second compound 0.316 µM, first compound 0.01 µM): 101% | viability, T/C [9]: 97.5% | viability, T/C [10]: 101% | viability, T/C [11]: 99.6% | viability, T/C [12]: 100% | viability, T/C (second compound 1 µM, first compound 0.00316 µM): 103% | viability, T/C (second compound 1 µM, first compound 0.01 µM): 99% | viability, T/C [13]: 101% | viability, T/C [14]: 97.6% | viability, T/C [15]: 100% | viability, T/C [16]: 100% | viability, T/C (second compound 3.16 µM, first compound 0.00316 µM): 100% | viability, T/C (second compound 3.16 µM, first compound 0.01 µM): 98.8% | viability, T/C [17]: 101% | viability, T/C [18]: 99.4% | viability, T/C [19]: 101% | viability, T/C [20]: 94.8% | viability, T/C (second compound 10 µM, first compound 0.00316 µM): 96.3% | viability, T/C (second compound 10 µM, first compound 0.01 µM): 92.5% | viability, T/C [21]: 94.5% | viability, T/C [22]: 95.8% | viability, T/C [23]: 97% | viability, T/C [24]: 55.2%

CC(C)n1c(=O)n(C)c2cnc3cc(F)c(-c4ccc(OCCCN5CCCCC5)nc4)cc3c21 + Nc1ccc(C#CCN(C(=O)Cc2ncc(C(F)(F)F)cc2C(F)(F)F)c2ccc(F)cc2)nn1
IC50 (second compound 0.0316 µM): > 10 µM | IC50 (second compound 0.1 µM): > 10 µM | IC50 (second compound 0.316 µM): > 10 µM | IC50 (second compound 1 µM): > 10 µM | IC50 (second compound 3.16 µM): > 10 µM | IC50 (second compound 10 µM): > 10 µM | viability, T/C [1]: 101% | viability, T/C [2]: 99% | viability, T/C [3]: 99.1% | viability, T/C [4]: 95.2% | viability, T/C [25]: 93.9% | viability, T/C [26]: 86.7% | viability, T/C [5]: 107% | viability, T/C [6]: 103% | viability, T/C [7]: 104% | viability, T/C [8]: 95.3% | viability, T/C [27]: 86.7% | viability, T/C [28]: 84.7% | viability, T/C [9]: 106% | viability, T/C [10]: 107% | viability, T/C [11]: 93.9% | viability, T/C [12]: 101% | viability, T/C [29]: 93.9% | viability, T/C [30]: 80.1% | viability, T/C [13]: 103% | viability, T/C [14]: 95.9% | viability, T/C [15]: 99.6% | viability, T/C [16]: 98.9% | viability, T/C [31]: 94% | viability, T/C [32]: 80.4% | viability, T/C [17]: 96.9% | viability, T/C [18]: 99.4% | viability, T/C [19]: 94.6% | viability, T/C [20]: 98.1% | viability, T/C [33]: 88.6% | viability, T/C [34]: 84.1% | viability, T/C [21]: 98.8% | viability, T/C [22]: 92.8% | viability, T/C [23]: 94.9% | viability, T/C [24]: 90.6% | viability, T/C [35]: 92.5% | viability, T/C [36]: 82.1%

CC1COCCN1c1cc(-c2ccnn2C)c2ccnc(-c3ccn[nH]3)c2n1 (stereo unspecified) + Nc1ccc(C#CCN(C(=O)Cc2ncc(C(F)(F)F)cc2C(F)(F)F)c2ccc(F)cc2)nn1
IC50 (second compound 0.0316 µM): 0.68 µM | IC50 (second compound 0.1 µM): 0.653 µM | IC50 (second compound 0.316 µM): 0.717 µM | IC50 (second compound 1 µM): 0.729 µM | IC50 (second compound 3.16 µM): 0.593 µM | IC50 (second compound 10 µM): 0.449 µM | viability, T/C [1]: 107% | viability, T/C [2]: 102% | viability, T/C [3]: 72.5% | viability, T/C [4]: 38.3% | viability, T/C [25]: 21% | viability, T/C [26]: 13.9% | viability, T/C [5]: 109% | viability, T/C [6]: 95.5% | viability, T/C [7]: 70.7% | viability, T/C [8]: 40% | viability, T/C [27]: 14.2% | viability, T/C [28]: 14.5% | viability, T/C [9]: 104% | viability, T/C [10]: 93.1% | viability, T/C [11]: 72% | viability, T/C [12]: 42.1% | viability, T/C [29]: 18.9% | viability, T/C [30]: 13.8% | viability, T/C [13]: 102% | viability, T/C [14]: 92.1% | viability, T/C [15]: 78.2% | viability, T/C [16]: 39.2% | viability, T/C [31]: 16.8% | viability, T/C [32]: 10.1% | viability, T/C [17]: 101% | viability, T/C [18]: 89.5% | viability, T/C [19]: 69.2% | viability, T/C [20]: 33.8% | viability, T/C [33]: 19.3% | viability, T/C [34]: 11.5% | viability, T/C [21]: 99.1% | viability, T/C [22]: 80.2% | viability, T/C [23]: 64.7% | viability, T/C [24]: 23.1% | viability, T/C [35]: 17.5% | viability, T/C [36]: 13.2%
